The values below come from ChEMBL document CHEMBL1139196, “Synthesis of fluorescent-labeled aeruginosin derivatives for high-throughput fluorescence correlation spectroscopy assays” (Bioorg Med Chem Lett, 2007).

This assay addresses Trypsin (Homo sapiens, UniProt P07477+P07478+P35030). The assay can be described thus: Inhibition of trypsin by FCS method. Format: protein assay.
Broadly, the IC50 is the concentration that inhibits the measured activity by half. The low end stands for higher potency, the high end for lower potency. As for `N=C(N)NCCCCNC(=O)[C@@H]1C[C@@H]2CC[C@@H](O)C[C@@H]2N1C(=O)[C@@H](Cc1ccc(O)cc1)NC(=O)[C@H](O)Cc1ccc(O)cc1`, the IC50 stood at 150 nM.
As for `N=C(N)NCCC[C@H](NC(=O)[C@@H]1C[C@@H]2CC[C@@H](O)C[C@@H]2N1C(=O)[C@H](Cc1ccccc1)NC(=O)[C@H](O)Cc1ccc(O)cc1)C(=O)O`, the figure is 12000 nM; as for `CC(C)C[C@@H](NC(=O)[C@H](O)Cc1ccc(O)cc1)C(=O)N1[C@H](C(=O)N[C@@H](CCCNC(=N)N)C(=O)O)C[C@@H]2CC[C@@H](O)C[C@@H]21`, 650 nM.
`N=C(N)NCCC[C@H](NC(=O)[C@@H]1C[C@@H]2CC[C@@H](O)C[C@@H]2N1C(=O)[C@@H](Cc1ccc(O)cc1)NC(=O)[C@H](O)Cc1ccc(O)cc1)C(=O)O`: the IC50 was found to be 1000 nM.
The molecule `N=C(N)NCCC[C@@H](CO)NC(=O)[C@@H]1C[C@@H]2CC[C@@H](O)C[C@@H]2N1C(=O)[C@@H](Cc1ccc(O)cc1)NC(=O)[C@H](O)Cc1ccc(O)cc1` yielded an IC50 of 8800 nM. Compared with the last molecule, the IC50 is about 8.8-fold higher.
